# Source: patent US9493466B2, “Treatment of cancer with TOR kinase inhibitors” (Signal Pharmaceuticals, LLC, priority 2011, dated 2016)
# Tests used:
# NET = test: Phase 1/2 study Part B: tumor response, NET; type: in vivo, human
# Text: (§1) In Part B, subjects may start Compound 1 at the MTD and/or a lower dose level based on safety, PK and PD data from Part A. Approximately 150 subjects will be treated and evaluated for safety and preliminary antitumor activity after every two cycles of therapy. Tumor types include non-small cell lung cancer (NSCLC), glioblastoma multiforme (GBM), hepatocellular carcinoma (HCC), gastrointestinal neuroendocrine tumor of non-pancreatic origin (NET), diffuse large B-cell lymphoma (DLBCL), multiple myeloma (MM), and hormone receptor positive breast cancer (HRPBC). Up to 20 subjects will be enrolled in each tumor type.
# Subjects will be evaluated for efficacy every 2 cycles through cycle 6 and every 3 cycles thereafter. The primary efficacy variable is response. Tumor assessments, including imaging (CT, MRI and/or PET) of the chest and abdomen and other sites as appropriate, will be performed during Screening. Subjects with brain lesions will also have brain scans at Screening and during follow-up tumor assessments. After Screening, tumor assessments (for all tumors except multiple myeloma) will be performed on completion of Cycles 2, 4 and 6 (i.e., on Cycles 3, 5 and 7/Day 1±7 days) and then every 3 months thereafter (e.g., Cycle 10 and 13/Day 1±7 days). Tumor assessment (for multiple myeloma and only NHL/DLBCL with known or suspected marrow involvement) (bone marrow aspiration and biopsy, with PD biomarker analysis, cytogenetic analysis if abnormally present at Screening) will be performed on completion of Cycles 4, 8, 12 and 16 only (i.e., on Cycles 5, 9, 13 and 17/Day 1±7 days). Cytogenetics need not be repeated if normal at Screening. Tumor response will be based on Response Evaluation Criteria in Solid Tumors (RECIST 1.1), International Workshop Criteria (IWC) for NHL/DLBCL or International Uniform Response Criteria (IURC) for Multiple Myeloma, and RANO for GBM, using the post resection MRI scan as the baseline. Given the difficulty in assessing tumor response following salvage surgery, the primary efficacy endpoint for GBM will be the proportion of subjects progression-free at 6 months from Day 1 relative to efficacy evaluable subjects in the GBM type. Subjects will be evaluated for tumor response on completion of Cycle 2, 4, 6, and so on. A descriptive analysis of evidence of anti-tumor activity will be provided based on clinical and radiographic assessments by the investigator, which includes assessment of target lesion, non-target lesion, new lesion and overall response.
# (§2) For Part B, efficacy variables to be analyzed include tumor response at the end of treatment, the proportion of subject alive and progression-free, and duration of response. […]
# [1] = Storage stability of compound-spotted plates (repeat testing in A549); type: physicochemical; conditions: DMSO-spotted sealed 384-well plates at −20° C.
# Experimental: Compound 1 was dissolved in dimethyl sulfoxide (DMSO) to prepare a 10 mM stock solution. A serial titration was performed to produce a working concentration range of […] to 10 mM. Aliquots to produce final concentrations of 1.5 nM to 10 μM were spotted via an acoustic dispenser (EDC ATS-100) into an empty 384-well plate. Compound 1 was spotted in a 10-point serial dilution fashion (3-fold dilution) in duplicate within the plate. The DMSO concentration was kept constant for a final assay concentration of 0.1% DMSO. Plates were replicated for use with different cell lines and testing periods. […] When ready for testing, plates were removed from the freezer, thawed, and unsealed just prior to the addition of the test cells. […] At the time when compound was added (t0), initial cell number was assessed via a viability assay (Cell Titer-Glo) by quantifying the level of luminescence generated by ATP present in viable cells. After 96 hours, cell viability of compound-treated cells was assessed via Cell Titer-Glo and luminescence measurement. […] The compound response against this control cell line was monitored closely to enable comparison of the data generated through the assay period. […] Results were then expressed as a GI50 value. […] In addition, the IC50 value of Compound 1 for each cell line was calculated.
# [2] = Phase 1/2 study Part A: safety and tolerability
# Text: The study is designed as a Phase 1/2 trial consisting of two parts: dose escalation (Part A) and dose expansion (Part B).
# Subsequently, a standard escalation dosing schedule with approximately 50% dose increments and 6 subjects per cohort will be initiated in order to establish the non-tolerated dose (NTD) and MTD. Smaller increments and additional subjects within a dose cohort may also be evaluated.
# A dose will be considered to be non-tolerated if 2 evaluable subjects in a dose cohort experience dose-limiting toxicity (DLT). When a NTD is defined, dose escalation will be stopped. The MTD will be defined as the last dose tested below the NTD with 0 or 1 out of 6 evaluable subjects experiencing DLT during Cycle 1. An intermediate dose (i.e., one between the NTD and the last dose level before the NTD) or additional subjects within any dose cohort may be required to determine the MTD more precisely.
# The safety variables for this study are adverse events, clinical laboratory variables, 12-lead ECGs (centrally reviewed), LVEF assessments, physical examinations and vital signs. In Part A, the decision to either evaluate a higher dose level or declare a MTD will be determined by the Safety Review Committee (SRC) each time all clinical and laboratory safety data for a given cohort is available for review. The SRC will also determine the dose, doses, or schedule appropriate for Part B. During Part B, the SRC will continue to review safety data regularly and make recommendations about the study continuation, as appropriate.
# Part A: Accelerated Dose Escalation Results.
# GBM = test: Phase 1/2 study Part B: tumor response, GBM; type: in vivo, human; conditions: 10 evaluable GBM patients
# Text: as §1
# Subjects will be evaluated for efficacy every 2 cycles through cycle 6 and every 3 cycles thereafter. The primary efficacy variable is response. Tumor assessments, including imaging (CT, MRI and/or PET) of the chest and abdomen and other sites as appropriate, will be performed during Screening. Subjects with brain lesions will also have brain scans at Screening and during follow-up tumor assessments. […] Subjects will be evaluated for tumor response on completion of Cycle 2, 4, 6, and so on. […]
# as §2
# RIVA = test: Apoptosis assay for NHL lines (Caspase 3/7-Glo); type: cell-based; conditions: NHL DLBCL, 24 hours, n = 1
# Experimental: (§3) Apoptosis Assay for NHL Lines. Prior to testing, cells were grown and expanded in culture flasks to provide sufficient amounts of starting material. Cells were then diluted to their desired densities and added directly to compound-spotted 384-well plates. Cells were allowed to grow for 24 hours in 5% CO2 at 37° C. The apoptotic response was assessed by quantifying the activities of caspase 3 and caspase 7 (Caspase 3/7-Glo) in treated cells and control cells at the 24-hour time point. All data was normalized and represented as a value relative to the DMSO-treated cells. Results were then expressed as CalX, which is the minimum compound concentration required to double the levels of caspase 3/7 relative to those of the DMSO-treated cells during their treatment period.
# KARPAS-299 = test: Apoptosis assay for NHL lines (Caspase 3/7-Glo); type: cell-based; conditions: KARPAS-299, ALCL T-cell, 24 hours, n = 1
# Experimental: as §3
# KARPAS-422 = test: Apoptosis assay for NHL lines (Caspase 3/7-Glo); type: cell-based; conditions: KARPAS-422, NHL DLBCL, 24 hours, n = 1
# Experimental: as §3
# KARPAS-1106P = test: Apoptosis assay for NHL lines (Caspase 3/7-Glo); type: cell-based; conditions: NHL DLBCL, 24 hours, n = 1
# Experimental: as §3
# DB = test: Apoptosis assay for NHL lines (Caspase 3/7-Glo); type: cell-based; conditions: NHL DLBCL, 24 hours, n = 1
# Experimental: as §3
# SU-DHL-5 = test: Apoptosis assay for NHL lines (Caspase 3/7-Glo); type: cell-based; conditions: SU-DHL-5, NHL DLBCL, 24 hours, n = 1
# Experimental: as §3
structure (smiles),measurement,setting,value
"CO[C@H]1CC[C@H](N2C(=O)CNc3ncc(-c4ccc(C(C)(C)O)nc4)nc32)CC1 [Compound 1, 7-(6-(2-hydroxypropan-2-yl)pyridin-3-yl)-1-((1r,4r)-4-methoxycyclohexyl)-3,4-dihydropyrazino-[2,3-b]pyrazin-2(1H)-one]",tumor metabolic activity by PET imaging,NET; majority of subjects,reductions in tumor metabolic activity
same,patients meeting Stable Disease (RECIST 1.1),NET; patients with sufficient follow up,Six patients
same,"endocrine hormone markers (chromogranin, gastrin, serotonin, glucagon)",NET; some patients,reductions
same,carcinoid syndrome-related symptoms,NET; some patients with refractory baseline symptoms,improvements
same,stable under the storage conditions,[1],at least 1 month
same,DLT,[2]; 30 mg,Grade 3 hyperglycemia
same,DLT,[2]; 45 mg,grade 3 rash
same,DLT,[2]; 60 mg,Fatigue and mucositis
same,dose level of the first grade 2 related toxicity,[2]; 3rd dose level,30 mg
same,most frequent related events,"[2]; N=28, 7.5 to 60 mg","Fatigue, GI toxicity (including mucositis/stomatitis), hyperglycemia, rash and arthralgia"
same,MTD,"[2]; once daily, oral",45 mg
same,NTD,"[2]; once daily, oral",60 mg
same,Hyperglycemia,"[2]; onset often during cycle 1, dose related",reported frequently
same,interstitial pneumonitis,[2]; responded to steroid treatment,One case of grade 3 interstitial pneumonitis requiring hospitalization
same,tolerability,[2]; toxicities comparable to other drugs targeting this pathway,well tolerated
same,"clinical activity, defined as 6-month Progression-Free Survival",GBM,No signs of clinical activity
same,Apoptotic,RIVA,N/Y
same,CalX (minimum concentration to double caspase 3/7),RIVA,3.84
same,Apoptotic,KARPAS-299,N/Y
same,CalX (minimum concentration to double caspase 3/7),KARPAS-299,9.61
same,Apoptotic,KARPAS-422,N/Y
same,CalX (minimum concentration to double caspase 3/7),KARPAS-422,5.16
same,CalX (minimum concentration to double caspase 3/7),KARPAS-1106P,0.25
same,Apoptotic,DB,N/Y
same,CalX (minimum concentration to double caspase 3/7),DB,5.44
same,CalX (minimum concentration to double caspase 3/7),SU-DHL-5,0.59
